Data on 17 compounds can be found in patent publication US12686692B2, “KRas G12D inhibitors” (Mirati Therapeutics, Inc., priority 2020, dated 2026).

The Kd is the constant that tells how readily two partners part at equilibrium. A high value points to lower affinity. For orientation: IC50 means the concentration needed to halve the response being measured. Lower therefore signals inhibition by little substance.

Assay [1] addresses T1, KRas G12D (Homo sapiens, UniProt P01116, G12D). The assay can be described thus: KRas G12D Surface Plasmon Resonance (SPR) Binding Assay. The settings on record: Biacore T200, biotinylated Avidin-tagged KRAS protein on SA chip, 20 C, 1:1 binding model. As to the method:
This Example illustrates that exemplary compounds of the present invention bind to KRas G12D as measured by surface plasmon resonance (SPR). Briefly, 1 L of 1.05×HBS-Mg buffer (262.5 mM BioUltra Hepes, pH 7.5, 157.5 mM NaCl, 105 mM MgCl2, 0.525 mM TCEP, […] Brij-35) was prepared and filter sterilized using a 0.22 μm bottle top filter. Approximately 50 mL of 1.05×HBS-Mg buffer was removed and saved for future dilutions. A 50 mL aliquot of DMSO (Sigma Aldrich DMSO Lot. #SHBK2079) was added and continued to stir for 10 minutes, creating the final 1.0×HBS-Mg buffer (250 mM BioUltra Hepes pH 7.5, 150 mM NaCl, 100 mM MgCl2, 0.5 mM TCEP, 0.03% Brij-35). Biacore T200 instrument was primed using 1.0×HBS-Mg buffer before docking a GE Streptavidin (SA) chip and then primed two additional times prior to beginning the immobilization step. All immobilized protein mixtures were created using 3-5 mg/mL Biotinylated Avidin-tagged KRAS protein using the following immobilization settings: SA chip type, 1 flow cells per cycle, 720 second contact time, and 5 μL/min flow rate. Normalization of the detector was also performed during the immobilization step using the GE BiaNormalize solution. All compounds were diluted to 10 mM in 100% DMSO prior to being diluted 20× in 1.05× buffer. Another 10× dilution was created using 1.0× buffer prior to performing a series of 3× dilutions to create a compound concentration curve using the following assay settings: 20 C analysis temperature, General Settings=10 Hz data collection rate and multi-detection; Assay Steps=all set to LMW kinetics; Cycle Types=LMW kinetics (60s contact time, 120s dissociation time, 100 μL/min flow rate, extra wash after injection with 50% DMSO, flow path 1,2,3,4); Flow path detection=2-1, 4-3). Data evaluation was performed using the Biacore T200 Evaluation software and data fit to 1:1 binding model.
On the technique in general: In SPR one partner is held on a chip, and binding of the other changes the refractive index at the surface.
Target sequence in this assay (P01116 1-188 isoform P01116-2 G12D): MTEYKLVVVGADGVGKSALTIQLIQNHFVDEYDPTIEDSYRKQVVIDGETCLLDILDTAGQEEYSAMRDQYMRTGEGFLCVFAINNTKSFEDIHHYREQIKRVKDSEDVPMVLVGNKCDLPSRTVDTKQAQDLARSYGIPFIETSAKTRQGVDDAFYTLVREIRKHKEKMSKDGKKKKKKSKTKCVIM

The target in assay [2] is T1, KRas G12D. Kind of assay: KRas G12D Binding Assay (TR-FRET displacement of labeled tracer). The settings on record: TR-FRET displacement of Cy5 labelled tracer, biotinylated GDP-loaded KRAS G12D (aa 1:169), 60 minute incubation at 22° C. Also noted: corresponding to amino acids 1:169, produced at Array BioPharma; biotin (protein is biotinylated). The method, boiled down: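 Biotinylated GDP-loaded human KRAS G12D (aa 1–169) incubated with Cy5 tracer, Eu-streptavidin and compound (2% DMSO final) in 50 mM HEPES pH 7.5, 5 mM MgCl2, 0.005% Tween-20, 1 mM DTT, 60 min at 22 °C. TR-FRET ratio converted to percent of control; IC50 at 50 POC from 4-parameter logistic fit.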
(In TR-FRET formats the signal depends on donor and acceptor labels being close together.)
Target sequence in this assay (P01116 1-169 isoform P01116-2 G12D): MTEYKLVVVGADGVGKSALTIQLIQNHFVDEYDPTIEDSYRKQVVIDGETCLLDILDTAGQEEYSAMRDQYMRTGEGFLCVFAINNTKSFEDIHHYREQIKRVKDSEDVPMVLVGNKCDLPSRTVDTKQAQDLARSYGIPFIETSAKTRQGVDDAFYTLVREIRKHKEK

For assay [3], the system named is KRas G12D-mediated Phosphorylation of ERK. Kind of assay: Inhibition of KRas G12D-mediated Phosphorylation of ERK in AGS cells. The assay is classed as cell-based. Particulars: Homo sapiens; AGS cells expressing G12D, 3 hours, phospho-ERK normalized to GAPDH. The method, boiled down: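 AGS cells (endogenous KRas G12D) were treated with compounds for 3 h in 0.5% DMSO, then fixed, permeabilized and immunostained. The phospho-ERK (Thr202/Tyr204) signal was normalized to GAPDH in-cell by infrared detection and expressed as % of DMSO control. IC50 came from a 4-parameter fit.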

Regarding `CN1CCC[C@H]1COc1nc2c(c(N3C[C@H]4CC[C@@H](C3)N4)n1)CCN(c1ccc(Br)c3cccc(Cl)c13)C2` [Example 74, 4-((1R,5S)-3,8-diazabicyclo[3.2.1]octan-3-yl)-7-(4-bromo-8-chloronaphthalen-1-yl)-2-(((S)-1-methylpyrrolidin-2-yl)methoxy)-5,6,7,8-tetrahydropyrido[3,4-d]pyrimidine], the Kd on KRas G12D [1] amounted to 41.6 µM. The 50% inhibitory concentration (IC50) at KRas G12D [2] is more than 10 µM. `C[C@H]1CC2CN(c3nc(OC[C@@H]4CCCN4C)nc4c3CCN(c3cccc5cccc(Cl)c35)C4)C[C@H]1N2` (single isomer, unassigned) [Example 88] displayed a Kd at KRas G12D [1] of 2.1 µM. At KRas G12D [2], this compound showed an IC50 of 1.09 µM.

Consider `CN1CCC[C@H]1COc1nc2c(c(N3C[C@H]4CC[C@@H](C3)N4)n1)CC(=O)N(Cc1ccccc1)C2` [Example 53, 7-benzyl-4-((1R,5S)-3,8-diazabicyclo[3.2.1]octan-3-yl)-2-(((S)-1-methylpyrrolidin-2-yl)methoxy)-7,8-dihydropyrido[3,4-d]pyrimidin-6(5H)-one], for which, on KRas G12D [1], the Kd was more than 1000 µM. On KRas G12D [2], this compound showed an IC50 of 5.26 µM. On the same counts, the results for `CN1CCC[C@H]1COc1nc2c(c(N3C[C@H]4CC[C@@H](C3)N4)n1)CCN(c1c(O)ccc3ccccc13)C2` [Example 78, 1-(4-((1R,5S)-3,8-diazabicyclo[3.2.1]octan-3-yl)-2-(((S)-1-methylpyrrolidin-2-yl)methoxy)-5,8-dihydropyrido[3,4-d]pyrimidin-7(6H)-yl)naphthalen-2-ol] are 51.4 µM and more than 10 µM. At KRas G12D [1], `CN1CCC[C@H]1COc1nc2c(c(N3C[C@H]4CC[C@@H](C3)N4)n1)CCN(c1cccc3cccc(F)c13)C2` [Example 73, 4-((1R,5S)-3,8-diazabicyclo[3.2.1]octan-3-yl)-7-(8-fluoronaphthalen-1-yl)-2-(((S)-1-methylpyrrolidin-2-yl)methoxy)-5,6,7,8-tetrahydropyrido[3,4-d]pyrimidine] displayed a Kd of 3.16 µM. This compound also had an IC50 at KRas G12D [2] of 1.1 µM.

Compound `CN1CCC[C@H]1COc1nc2c(c(N3C[C@H]4C/C(=C\C#N)[C@@H](C3)N4)n1)CCN(c1cccc3cccc(Cl)c13)C2` (single isomer, unassigned) [Example 89] had a Kd on KRas G12D [1] of 27.1 µM. The half-maximal inhibitory concentration (IC50) at KRas G12D [2] was more than 10 µM.

In the case of `CN1CCC[C@H]1COc1nc2c(c(N3C[C@H]4CC[C@@H](C3)N4)n1)CCN(c1cccc3c1C(CC#N)CCC3)C2` (stereo partly drawn) [Example 85, 2-(8-(4-((1R,5S)-3,8-diazabicyclo[3.2.1]octan-3-yl)-2-(((S)-1-methylpyrrolidin-2-yl)methoxy)-5,8-dihydropyrido[3,4-d]pyrimidin-7(6H)-yl)-1,2,3,4-tetrahydronaphthalen-1-yl)acetonitrile], the dissociation constant Kd at KRas G12D [1] turned out to be 1.51 µM. `Cc1c(O)cc(N2CCc3c(nc(OC[C@@H]4CCCN4C)nc3N3C[C@H]4CC[C@@H](C3)N4)C2)c2ccccc12` [Example 69, 4-(4-((1R,5S)-3,8-diazabicyclo[3.2.1]octan-3-yl)-2-(((S)-1-methylpyrrolidin-2-yl)methoxy)-5,8-dihydropyrido[3,4-d]pyrimidin-7(6H)-yl)-1-methylnaphthalen-2-ol] gave a dissociation constant Kd at KRas G12D [1] of 38.4 µM. The half-inhibitory concentration (IC50) on KRas G12D [2] is more than 10 µM. With `CN1CCC[C@H]1COc1nc2c(c(N3C[C@@H]4C[C@H](CO)[C@H](C3)N4)n1)CCN(c1cc(O)cc3ccccc13)C2` [Example 120, 4-(4-((1S,5R,6S)-6-(hydroxymethyl)-3,8-diazabicyclo[3.2.1]octan-3-yl)-2-(((S)-1-methylpyrrolidin-2-yl)methoxy)-5,8-dihydropyrido[3,4-d]pyrimidin-7(6H)-yl)naphthalen-2-ol], at KRas G12D [1], binding was put at a Kd of 1.4 µM. Compound `CN1CCC[C@H]1COc1nc2c(c(N3C[C@H]4CC[C@@H](C3)N4)n1)CCN(C1CC(O)c3ccccc31)C2` (stereo partly drawn) [Example 35, 3-(4-((1R,5S)-3,8-diazabicyclo[3.2.1]octan-3-yl)-2-(((S)-1-methylpyrrolidin-2-yl)methoxy)-5,8-dihydropyrido[3,4-d]pyrimidin-7(6H)-yl)-2,3-dihydro-1H-inden-1-ol] returned a Kd at KRas G12D [1] of 570 µM. This compound also displayed an IC50 on KRas G12D [2] of more than 10 µM.

Turning to `CN1CCC[C@H]1COc1nc2c(c(N3C[C@H]4CC[C@@H](C3)N4)n1)CCN(c1cccc3c1CCCC3)C2` [Example 71, 4-((1R,5S)-3,8-diazabicyclo[3.2.1]octan-3-yl)-2-(((S)-1-methylpyrrolidin-2-yl)methoxy)-7-(5,6,7,8-tetrahydronaphthalen-1-yl)-5,6,7,8-tetrahydropyrido[3,4-d]pyrimidine], the Kd at KRas G12D [1] was 4.22 µM. In addition, at KRas G12D [2], the half-maximal inhibitory concentration (IC50) worked out at 1.78 µM. Regarding `CCc1cccc2cccc(N3CCc4c(nc(OC[C@]56CCCN5[C@@H](COC(=O)NCCOC)CC6)nc4N4C[C@H]5CC[C@@H](C4)N5)C3)c12` [Example 108, ((3R,7aR)-7a-(((4-((1R,5S)-3,8-diazabicyclo[3.2.1]octan-3-yl)-7-(8-ethylnaphthalen-1-yl)-5,6,7,8-tetrahydropyrido[3,4-d]pyrimidin-2-yl)oxy)methyl)hexahydro-1H-pyrrolizin-3-yl)methyl (2-methoxyethyl)carbamate], the figures for the half-maximal inhibitory concentration (IC50) (in assay [3]; at KRas G12D [2]) were 0.585 µM and 0.002 µM, respectively. On the same counts, the results for `CCc1cccc2cccc(N3CCc4c(nc(OC[C@]56CCCN5[C@@H](COC(=O)N5CCCC5)CC6)nc4N4C[C@H]5CC[C@@H](C4)N5)C3)c12` [Example 99, ((3R,7aR)-7a-(((4-((1R,5S)-3,8-diazabicyclo[3.2.1]octan-3-yl)-7-(8-ethylnaphthalen-1-yl)-5,6,7,8-tetrahydropyrido[3,4-d]pyrimidin-2-yl)oxy)methyl)hexahydro-1H-pyrrolizin-3-yl)methyl pyrrolidine-1-carboxylate] are 0.559 µM and 0.0027 µM. As for `Brc1ccc(N2CCc3c(nc(OCC45CCCN4CCC5)nc3N3C[C@H]4CC[C@@H](C3)N4)C2)c2ccccc12` [Example 112, 4-((1R,5S)-3,8-diazabicyclo[3.2.1]octan-3-yl)-7-(4-bromonaphthalen-1-yl)-2-((hexahydro-1H-pyrrolizin-7a-yl)methoxy)-5,6,7,8-tetrahydropyrido[3,4-d]pyrimidine], the IC50 is more than 16.7 µM in assay [3] and 5.46 µM at KRas G12D [2]. As to `c1ccc2c(N3CCc4c(nc(OCC56CCCN5CCC6)nc4N4C[C@H]5CC[C@@H](C4)N5)C3)cccc2c1` [Example 114, 4-((1R,5S)-3,8-diazabicyclo[3.2.1]octan-3-yl)-2-((hexahydro-1H-pyrrolizin-7a-yl)methoxy)-7-(naphthalen-1-yl)-5,6,7,8-tetrahydropyrido[3,4-d]pyrimidine], the half-maximal inhibitory concentration (IC50) in assay [3] is more than 16.7 µM; at KRas G12D [2] it was 0.0342 µM. With `Oc1cc(N2CCc3c(nc(OC[C@@]45CCCN4C[C@H](F)C5)nc3N3C[C@H]4CC[C@@H](C3)N4)C2)c2c(Cl)cccc2c1` [Example 117, 4-(4-((1R,5S)-3,8-diazabicyclo[3.2.1]octan-3-yl)-2-(((2R,7aS)-2-fluorohexahydro-1H-pyrrolizin-7a-yl)methoxy)-5,6-dihydropyrido[3,4-d]pyrimidin-7(8H)-yl)-5-chloronaphthalen-2-ol], the half-maximal inhibitory concentration (IC50) in assay [3] came out at 0.076 µM; on KRas G12D [2], 0.0007 µM. On the same counts, the results for `CCc1cccc2cccc(N3CCc4c(nc(OCC56CCCN5C(COC(=O)N(CC)CC)CC6)nc4N4C[C@H]5CC[C@@H](C4)N5)C3)c12` (mixture of isomers) [Example 66, (7a-(((4-((1R,5S)-3,8-diazabicyclo[3.2.1]octan-3-yl)-7-(8-ethylnaphthalen-1-yl)-5,6,7,8-tetrahydropyrido[3,4-d]pyrimidin-2-yl)oxy)methyl)hexahydro-1H-pyrrolizin-3-yl)methyl diethylcarbamate] are 2.21 µM and 0.0046 µM.
